From US20260285850A1, “SUBSTITUTED OXAZOLIDINONES AND IMIDAZOLINONES AS HERBICIDES” (FMC CORPORATION, priority 2023, published 2026)

Assays:
Assay type in all cases: in vivo
[1] = test system: barnyardgrass (Echinochloa crus-galli); experiment: Test A preemergence soil spray, visual injury rating 0-100; conditions: 10 days
In short: (§1)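 Compounds formulated in a non-phytotoxic solvent with surfactant are sprayed onto soil of freshly planted loam-sand pots ahead of emergence, or onto emerged plants 2-10 cm tall. After a 10-day greenhouse period, each species is scored visually for injury against untreated controls.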

[2] = test system: blackgrass (Alopecurus myosuroides); experiment: as above; conditions: 10 days
In short: as §1

[3] = test system: corn (Zea mays); experiment: as above; conditions: 10 days
In short: as §1

[4] = test system: green foxtail (Setaria viridis); experiment: as above; conditions: 10 days
In short: as §1

[5] = test system: kochia (Bassia scoparia); experiment: as above; conditions: 10 days
In short: as §1

[6] = test system: oat, wild (wild oat, Avena fatua); experiment: as above; conditions: 10 days
In short: as §1

[7] = test system: palmer (palmer amaranth, palmer pigweed, Amaranthus palmeri); experiment: as above; conditions: 10 days
In short: as §1

[8] = test system: ragweed (common ragweed, Ambrosia artemisiifolia); experiment: as above; conditions: 10 days
In short: as §1

[9] = test system: ryegrass, Italian (italian ryegrass, Lolium multiflorum); experiment: as above; conditions: 10 days
In short: as §1

[10] = test system: soybean (Glycine max); experiment: as above; conditions: 10 days
In short: as §1

[11] = test system: wheat (Triticum aestivum); experiment: as above; conditions: 10 days
In short: as §1

[12] = test system: barnyardgrass (Echinochloa crus-galli); experiment: Test A postemergence application, visual injury rating 0-100
In short: as §1

[13] = test system: blackgrass (Alopecurus myosuroides); experiment: as above
In short: as §1

[14] = test system: corn (Zea mays); experiment: as above
In short: as §1

[15] = test system: galium (catchweed bedstraw, Galium aparine); experiment: as above
In short: as §1

[16] = test system: green foxtail (Setaria viridis); experiment: as above
In short: as §1

[17] = test system: horseweed (Erigeron canadensis); experiment: as above
In short: as §1

[18] = test system: kochia (Bassia scoparia); experiment: as above
In short: as §1

[19] = test system: oat, wild (wild oat, Avena fatua); experiment: as above
In short: as §1

[20] = test system: palmer (palmer amaranth, palmer pigweed, Amaranthus palmeri); experiment: as above
In short: as §1

[21] = test system: ragweed (common ragweed, Ambrosia artemisiifolia); experiment: as above
In short: as §1

[22] = test system: ryegrass, Italian (italian ryegrass, Lolium multiflorum); experiment: as above
In short: as §1

[23] = test system: soybean (Glycine max); experiment: as above
In short: as §1

[24] = test system: wheat (Triticum aestivum); experiment: as above
In short: as §1

[25] = test system: barnyardgrass (Echinochloa crusgalli); experiment: Test B flooded paddy test, visual plant response rating 0-100; conditions: 250 g ai/ha, Flood, applied to paddy water, evaluated after 13 days
In short: (§2)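 Treatment occurs at the 2-leaf stage by adding compound to floodwater standing 3 cm above the soil, a level kept for the whole test. Plants stay in the greenhouse 13 days before visual comparison with controls.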

[26] = test system: ducksalad (Heteranthera limosa); experiment: as above; conditions: 250 g ai/ha, Flood, applied to paddy water, evaluated after 13 days
In short: as §2

[27] = test system: rice (Oryza sativa); experiment: as above; conditions: 250 g ai/ha, Flood, applied to paddy water, evaluated after 13 days
In short: as §2

[28] = test system: sedge, umbrella (small-flower umbrella sedge, Cyperus difformis); experiment: as above; conditions: 250 g ai/ha, Flood, applied to paddy water, evaluated after 13 days
In short: as §2

[29] = 62 g ai/ha, 0 = no effect, 100 = complete control
[30] = 62 g ai/ha, postemergence, 10 days, 0 = no effect, 100 = complete control
[31] = Postemergence, 16 g ai/ha, greenhouse 10 days, 0 no effect, 100 complete control

## COC(=O)C1C=CC(NC(=O)C2(C)CN(c3cccc(OC(F)(F)F)c3)C(=O)O2)C1 (mixture of isomers) [Compound 101]
[1]; 16 g ai/ha, 0 to 100 scale
  Barnyardgrass plant response rating: 0
[1]; [29]
  Barnyardgrass plant response rating (0-100): 60
[2]; 16 g ai/ha, 0 to 100 scale
  Blackgrass plant response rating: 0
[2]; [29]
  Blackgrass plant response rating (0-100): 50
[3]; 16 g ai/ha, 0 to 100 scale
  Corn plant response rating: 0
[3]; [29]
  Corn plant response rating (0-100): 50
[4]; 16 g ai/ha, 0 to 100 scale
  Foxtail, Green plant response rating: 0
[4]; [29]
  Foxtail, Green plant response rating (0-100): 0
[5]; 16 g ai/ha, 0 to 100 scale
  Kochia plant response rating: 0
[5]; [29]
  Kochia plant response rating (0-100): 0
[6]; 16 g ai/ha, 0 to 100 scale
  Oat, Wild plant response rating: 0
[6]; [29]
  Oat, Wild plant response rating (0-100): 80
[7]; 16 g ai/ha, 0 to 100 scale
  Pigweed, Palmer plant response rating: 0
[7]; [29]
  Pigweed, Palmer plant response rating (0-100): 0
[8]; 16 g ai/ha, 0 to 100 scale
  Ragweed plant response rating: 0
[8]; [29]
  Ragweed plant response rating (0-100): 10
[9]; 16 g ai/ha, 0 to 100 scale
  Ryegrass, Italian plant response rating: 0
[9]; [29]
  Ryegrass, Italian plant response rating (0-100): 80
[10]; 16 g ai/ha, 0 to 100 scale
  Soybean plant response rating: 0
[10]; [29]
  Soybean plant response rating (0-100): 0
[11]; 16 g ai/ha, 0 to 100 scale
  Wheat plant response rating: 0
[11]; [29]
  Wheat plant response rating (0-100): 40
[12]; [30]
  Barnyardgrass plant response rating (0-100): 90
[12]; [31]
  Barnyardgrass plant response rating (0 to 100 scale): 60
[13]; [30]
  Blackgrass plant response rating (0-100): 90
[13]; [31]
  Blackgrass plant response rating (0 to 100 scale): 80
[14]; [30]
  Corn plant response rating (0-100): 90
[14]; [31]
  Corn plant response rating (0 to 100 scale): 50
[15]; [30]
  Galium plant response rating (0-100): 60
[15]; [31]
  Galium plant response rating (0 to 100 scale): 50
[16]; [30]
  Foxtail, Green plant response rating (0-100): 50
[16]; [31]
  Foxtail, Green plant response rating (0 to 100 scale): 10
[17]; [30]
  Horseweed plant response rating (0-100): 10
[17]; [31]
  Horseweed plant response rating (0 to 100 scale): 10
[18]; [30]
  Kochia plant response rating (0-100): 60
[18]; [31]
  Kochia plant response rating (0 to 100 scale): 10
[19]; [30]
  Oat, Wild plant response rating (0-100): 90
[19]; [31]
  Oat, Wild plant response rating (0 to 100 scale): 70
[20]; [30]
  Pigweed, Palmer plant response rating (0-100): 10
[20]; [31]
  Pigweed, Palmer plant response rating (0 to 100 scale): 0
[21]; [30]
  Ragweed plant response rating (0-100): 30
[21]; [31]
  Ragweed plant response rating (0 to 100 scale): 0
[22]; [30]
  Ryegrass, Italian plant response rating (0-100): 70
[22]; [31]
  Ryegrass, Italian plant response rating (0 to 100 scale): 50
[23]; [30]
  Soybean plant response rating (0-100): 60
[23]; [31]
  Soybean plant response rating (0 to 100 scale): 40
[24]; [30]
  Wheat plant response rating (0-100): 80
[24]; [31]
  Wheat plant response rating (0 to 100 scale): 30
[25]
  Plant response rating, Barnyardgrass (0 to 100 scale, 0 is no effect and 100 is complete control): 0
[26]
  Plant response rating, Ducksalad (0 to 100 scale, 0 is no effect and 100 is complete control): 0
[27]
  Plant response rating, Rice (0 to 100 scale, 0 is no effect and 100 is complete control): 0
[28]
  Plant response rating, Sedge, Umbrella (0 to 100 scale, 0 is no effect and 100 is complete control): 0
